Several values for one entry are separate records, joined by “and”; a condition that tells them apart may be missing. Equal values may be shown once.

Chain of IN-GCN2 interaction (6xHis-IN / GST-GCN2) (Q9P2K8 192-1024, other chains not shown): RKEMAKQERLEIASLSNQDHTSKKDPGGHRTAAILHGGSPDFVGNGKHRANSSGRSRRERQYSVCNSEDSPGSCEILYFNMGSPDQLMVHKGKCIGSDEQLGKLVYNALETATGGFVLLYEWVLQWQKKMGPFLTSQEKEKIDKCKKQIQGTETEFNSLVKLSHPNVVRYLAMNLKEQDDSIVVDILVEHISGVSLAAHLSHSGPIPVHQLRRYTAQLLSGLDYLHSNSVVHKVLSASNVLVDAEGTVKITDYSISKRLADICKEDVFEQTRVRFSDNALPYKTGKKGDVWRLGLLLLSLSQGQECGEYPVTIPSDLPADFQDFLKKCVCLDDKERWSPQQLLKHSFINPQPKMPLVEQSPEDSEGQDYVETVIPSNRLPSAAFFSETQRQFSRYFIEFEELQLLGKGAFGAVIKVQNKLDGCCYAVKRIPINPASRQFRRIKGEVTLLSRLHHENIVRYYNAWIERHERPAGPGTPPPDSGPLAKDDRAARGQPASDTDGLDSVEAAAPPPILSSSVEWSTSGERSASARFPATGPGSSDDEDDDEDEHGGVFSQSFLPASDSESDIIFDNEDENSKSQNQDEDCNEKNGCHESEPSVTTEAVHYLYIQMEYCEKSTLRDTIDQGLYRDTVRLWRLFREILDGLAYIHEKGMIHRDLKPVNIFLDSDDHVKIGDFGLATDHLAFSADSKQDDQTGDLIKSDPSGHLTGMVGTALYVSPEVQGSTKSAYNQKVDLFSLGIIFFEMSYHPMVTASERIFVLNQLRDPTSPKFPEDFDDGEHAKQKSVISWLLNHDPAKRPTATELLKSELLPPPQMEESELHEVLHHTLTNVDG

One assay concerns the target IN-GCN2 interaction (6xHis-IN / GST-GCN2) (UniProt P04585+Q9P2K8). In words: biochemical. The format is binding, HIV-1 IN; human GCN2. Particulars: screen, single dose 100 µM, single replicate; residual AlphaLISA signal normalized to DMSO control. For orientation: Bead proximity is the source of the signal in Alpha formats.
On to `CCCCCC[C@@H]([C@@H](C)O)n1cnc2c(N)ncnc21` [NSC263164], for which the “IN-GCN2 interaction (%)” value came to 111.18%.
In the case of `O=C1C=C[C@H](O)[C@@]2(CO)O[C@@H]12` [NSC266032], the “IN-GCN2 interaction (%)” value is listed as 108.08%.
The same measure, in the same setting: as for `COC(=O)[C@@H]1[C@H](O)[C@H](C)[C@H](O)[C@H](C)/C=C\C=C(/C)C(=O)Nc2c(C)c(OC(C)=O)c3c(c2O)C(=O)C(C)=C2OCOC(=C23)/C(C)=C/[C@@](C)(O)[C@H](O)[C@@H](C)[C@H]1O` [NSC19990], the figure is 69.46%.
Still for that read-out and setting: as for `COc1c2c(c3c(c1OC)c(=O)c1ccccc1n3C)OCO2` [NSC34758], the figure is 105.30%; as for `COc1cc2c(c(OC)c1O)-c1ccc(OC)c(=O)cc1[C@@H](NC(=O)C(F)(F)F)CC2` [NSC335989], 89.57%.
Turning to `COc1c2c(c(CC=C(C)C)c3oc(=O)c(-c4ccc(O)cc4)c(O)c13)OC(C)(C)C=C2` [NSC307981], the “IN-GCN2 interaction (%)” value stood at 101.87%.
Still for that read-out and setting: the result for `CO[C@@]12[C@H](COC(N)=O)C3=C(C(=O)C(C)=C(N)C3=O)N1C[C@H]1[C@@H]2N1C` (stereo partly drawn) [NSC56410] reads 73.33%; that for `COc1cc2c(cc1OC)C13CCN4CC5CCOC6CC(=O)N2C1C6C5CC43` (stereo not drawn) [NSC72917], 90.85%; that for `COc1cc2c(c(OC)c1OC)-c1ccc(SC)c(=O)cc1[C@@H](NC(=O)C(F)(F)F)CC2` [NSC320301], 97.92%.
The same measure, in the same setting: the result for `COC(=O)NC1C(C)OC(OC2C/C=C(/C)C3C=CC4C(OC5CC(OC6CCC(OC7CC(O)C(OC8CCC(O)C(C)O8)C(C)O7)C(C)O6)C(OC(C)=O)C(C)O5)C(C)CC(C)C4C3(C)/C(O)=C3/C(=O)OC4(CC(C=O)=CC(O)C4/C=C\2C)C3=O)CC1(C)[N+](=O)[O-]` (stereo not drawn) [NSC333856] reads 110.41%; that for `O=C(O)c1cc(O)c(O)c(O)c1` [NSC20103], 83.04%; that for `CC(=O)O[C@@]1(C)C[C@@H]([C@H](O)CC2CC(=O)NC(=O)C2)C(=O)[C@@H](C)C1` [NSC32743], 79.33%.
On the same count and under the same terms, the result for `COC(=O)C1C2CC3c4[nH]c5cc(OC)ccc5c4CCN3CC2CC(OC(=O)CCc2cc(OC)c(OC)c(OC)c2)C1OC` (stereo not drawn) [NSC29854] reads 63.08%; that for `COc1cc2c3c(c1O)Oc1ccc(cc1)C[C@@H]1c4c(cc(OC)c(OC)c4Oc4ccc(cc4)C[C@@H]3N(C)CC2)CCN1C` [NSC785173], 45.72%; that for `CC(C)=CCC1=C(O)c2ccccc2C(=O)C1=O` [NSC11905], 107.31%.
As for `CC(C)C[C@H](N)C(=O)O` [NSC46709], the “IN-GCN2 interaction (%)” value was determined as 84.16%.
On the same count and under the same terms, the result for `CCc1c2c(nc3ccc(OC(=O)N4CCC(N5CCCCC5)CC4)cc13)-c1cc3c(c(=O)n1C2)COC(=O)[C@]3(O)CC` [NSC616348] reads 97.94%; that for `COc1ccc(/C=C/C(=O)c2ccccc2)cc1` [NSC11866], 81.82%.
In the case of `COc1cc2c(cc1OC)[C@@H](Cc1ccc(O)cc1)N(C)CC2` [NSC785172], the “IN-GCN2 interaction (%)” value stood at 91.61%.
Still for that read-out and setting: the result for `C[C@@H]1C[C@H]2OC(=O)[C@@]3(C)CCC[C@@](C)([C@@H]23)[C@@]1(O)CCc1ccoc1` [NSC36693] reads 92.00%; that for `CC1(C)Oc2cc3oc(=O)ccc3c3c2C2C1CCC(C)(O3)C2O` (stereo not drawn) [NSC83433], 78.75%.
Still for that read-out and setting: the result for `COc1c2c(cc(O)c1C(C)=O)OC(C)(C)C=C2` [NSC36294] reads 109.95%.
In the case of `CO[C@H]1[C@@H](O)[C@@H](C)O[C@H](O[C@H]2[C@H](Oc3cccc4c(O)c5c(=O)oc6ccc(C)c7c(=O)oc(c34)c5c67)O[C@H](C)[C@H](O)[C@@H]2O)[C@@H]1O` [NSC5159], the “IN-GCN2 interaction (%)” value stood at 121.88%.
Consider `Cc1c(N)nc([C@H](CC(N)=O)NC[C@H](N)C(N)=O)nc1C(=O)N[C@H](C(=O)N[C@H](C)[C@@H](O)[C@H](C)C(=O)N[C@H](C(=O)NCCc1nc(-c2nc(C(=O)NCCCN[C@@H](C)c3ccccc3)cs2)cs1)[C@@H](C)O)[C@@H](O[C@@H]1O[C@@H](CO)[C@@H](O)[C@H](O)[C@@H]1O[C@H]1O[C@H](CO)[C@@H](O)[C@H](OC(N)=O)[C@@H]1O)c1cnc[nH]1` [NSC276382], for which the “IN-GCN2 interaction (%)” value worked out at 37.70%.
The same measure, in the same setting: the result for `Nc1ncnc2c1ncn2C1OCC(O)C1O` (stereo not drawn) [NSC330917] reads 127.88%; that for `C=C1C(=O)O[C@@H]2C[C@@]3(C)CCC[C@H](C)C3=C[C@H]12` [NSC302289], 117.43%; that for `CC[C@H](C)c1occ2c(O)c(C(=O)O)c(=O)cc-2c1C` [NSC114344], 113.54%.
The same measure, in the same setting: as for `CC1(C)C(CC(=O)O)CC1C(=O)O` (stereo not drawn) [NSC2802], the figure is 86.94%.
Same read-out and setting: as for `CC(C)[C@@](O)(C(=O)OCC1=CCN2CC[C@H](O)[C@@H]12)[C@H](C)O` [NSC89937], the figure is 65.06%.
`CC[C@H]1OC(=O)[C@H](C)[C@@H](OC2CC(C)(OC)C(O)C(C)O2)[C@H](C)[C@@H](OC2OC(C)CC(N(C)C)C2OC(=O)CCC2CCCC2)[C@](C)(O)C[C@@H](C)C(=O)[C@H](C)[C@@H](O)[C@]1(C)O` (stereo partly drawn) [NSC63946]: the “IN-GCN2 interaction (%)” value is on record as 43.14%.
On the same count and under the same terms, as for `C=C1C(=O)O[C@@H]2[C@H]1CC[C@H](C)[C@]1(O)C=CC(=O)[C@@]21C` [NSC85239], the figure is 120.23%.
As to `Cl.NC(=O)c1cn(C2OC(CO)C(O)C2O)c2ncnc(N)c12` (stereo not drawn) [NSC143648], the “IN-GCN2 interaction (%)” value is reported as 113.09%.
On to `COc1cc([C@@H]2c3cc4c(cc3[C@@H](O[C@@H]3O[C@@H]5CO[C@@H](c6cccs6)O[C@H]5[C@H](O)[C@H]3O)[C@H]3COC(=O)[C@H]23)OCO4)cc(OC)c1O` [NSC122819], for which the “IN-GCN2 interaction (%)” value is 96.83%.
With `COc1cc2c3c(c1OC)Oc1ccc(cc1)C[C@H]1c4c(cc(OC)c(OC)c4Oc4ccc(cc4)C[C@H]3N(C)CC2)CCN1C` [NSC785174], the “IN-GCN2 interaction (%)” value worked out at 57.96%.
For the molecule `COc1ccc2c(c1)[C@@]13CCN4CC5=CCO[C@H]6CC(=O)N2[C@H]1[C@H]6[C@H]5C[C@H]43` [NSC72862], the “IN-GCN2 interaction (%)” value is 85.38%.
`O=c1[nH]c(=O)c2[nH]cnc2[nH]1` [NSC14664]: the “IN-GCN2 interaction (%)” value is reported as 105.35%.
With `C/C=C\C(C)=C\[C@H](C)C(=O)C[C@H](O)CC1CC(=O)NC(=O)C1` [NSC248958], the “IN-GCN2 interaction (%)” value turned out to be 116.00%.
Same read-out and setting: as for `C[C@@H]1C[C@@H]2CCCC(O)=C2C(=O)O1` [NSC112906], the figure is 126.27%; as for `NC(=S)c1cn(C2OC(CO)C(O)C2O)c2ncnc(N)c12` (stereo not drawn) [NSC105827], 100.77%; as for `CN(C)[C@@H]1C(O)=C(C(N)=O)C(=O)[C@@]2(O)C(O)=C3C(=O)c4c(O)ccc(Cl)c4[C@@](C)(O)[C@H]3C[C@@H]12` [NSC13252], 93.93%.
For `CC(=O)O[C@@H]1C[C@H]2C(C)(C)C(=O)C=C[C@]2(C)[C@H]2CC[C@@]3(C)[C@H](c4ccoc4)OC(=O)[C@H]4O[C@]43[C@@]21C` [NSC113497], the “IN-GCN2 interaction (%)” value is recorded as 59.74%.
As for `COc1ccc2c(c1OC)C(=O)O[C@@H]2[C@H]1c2c(cc3c(c2OC)OCO3)CCN1C` [NSC5366], the “IN-GCN2 interaction (%)” value worked out at 132.74%.
The same measure, in the same setting: as for `COc1ccc(C[C@@H]2NC[C@@H](O)[C@@H]2OC(C)=O)cc1.Cl` [NSC147340], the figure is 88.95%; as for `COc1ccc(/C=C/C(=O)c2c(OC)cc(OC)c(OC)c2O)cc1` [NSC19038], 50.51%.
Same read-out and setting: as for `COC1CCC(OC2CC(C3(C)CCC4(CC(O)C(C)C(C(C)/C=C(\C)C(=O)C(C)CC(C)C(=O)O)O4)O3)OC3(OC(C4OC(O)(CO)C(C)CC4C)CC3C)C2C)OC1C` (stereo not drawn) [NSC138320], the figure is 102.91% and 57.85%.
For `O=C1CC(c2ccccc2)Oc2ccccc21` (stereo not drawn) [NSC50393], the “IN-GCN2 interaction (%)” value amounted to 103.95%.
For the molecule `CC(C)[C@]12CC(=O)[C@@H](C)[C@H]1C2` [NSC67392], the “IN-GCN2 interaction (%)” value amounted to 80.58%.
On the same count and under the same terms, the result for `CO[C@H]1[C@H](O)[C@@H](O)[C@H](n2c3c(Cl)cccc3c3c4c(c5c6cccc(Cl)c6[nH]c5c32)C(=O)NC4=O)O[C@@H]1CO` [NSC359079] reads 55.24%.
Still for that read-out and setting: the result for `CC(=O)OC1C(OC(C)=O)C2C(C)CC3OC(=O)C(C)C3CC2(C)C1OC(C)=O` (stereo not drawn) [NSC266071] reads 100.86%; that for `COC(=O)C1=CO[C@@H](C)[C@@H]2CN3CCc4c([nH]c5cc(OC)ccc45)[C@@H]3C[C@H]12` [NSC15624], 43.70%.
Same read-out and setting: the result for `OC[C@H]1O[C@@](CO)(O[C@H]2O[C@H](CO)[C@@H](O)[C@H](O)[C@H]2O)[C@@H](O[C@H]2O[C@H](CO)[C@@H](O)[C@H](O)[C@H]2O)[C@@H]1O` [NSC2080] reads 102.20%; that for `O=P1(N(CCCl)CCCl)NCCCO1` (stereo not drawn) [NSC26271], 117.66%.
`O=c1oc2c(O)c(O)cc3c(=O)oc4c(O)c(O)cc1c4c23` [NSC407286]: the “IN-GCN2 interaction (%)” value was 49.11%.
Take `CCCCCCCCCCCCCCCCCCO` [NSC5379]: the “IN-GCN2 interaction (%)” value came out at 92.43%.
Same read-out and setting: as for `C[C@]12CCC(=O)[C@](C)(CO)[C@@H]1CC[C@@]13C[C@@H](CC[C@@H]12)[C@@H](C(=O)O)C3` [NSC83439], the figure is 107.59%; as for `CCCCCCCCCCCCCCCC(=O)OC[C@H]1O[C@@H](n2ccc(N)nc2=O)[C@@H](O)[C@@H]1O` [NSC135962], 92.71%.
Still for that read-out and setting: the result for `Oc1ccc2c(c1)OC[C@]1(O)Cc3cc(O)c(O)cc3[C@H]21` [NSC8661] reads 86.68%.

Still in this assay, the particulars now being: screen, single dose 100 µM, single replicate; residual AlphaLISA signal normalized to DMSO control; listed as 59258.
Turning to `O=C(O)C1(O)C[C@@H](O)C(O)[C@H](O)C1` (stereo partly drawn) [NSC59258], the “IN-GCN2 interaction (%)” value is listed as 71.78%.

Staying with this assay, now noted: screen, single dose 100 µM, single replicate; residual AlphaLISA signal normalized to DMSO control; listed as 94600.
Take `CC[C@@]1(O)C(=O)OCc2c1cc1n(c2=O)Cc2cc3ccccc3nc2-1` [NSC94600]: the “IN-GCN2 interaction (%)” value turned out to be 48.96%.

Staying with this assay, now noted: screen, single dose 100 µM, single replicate; residual AlphaLISA signal normalized to DMSO control; listed as 785170.
For `COc1cc2c3c(c1O)-c1ccccc1C[C@@H]3N(C)CC2` [NSC785170], the “IN-GCN2 interaction (%)” value was 99.49%.

For the origin of these results see paper PMC12390684 (Viruses, 2025).
